Experimental data taken from BigSolDB 2.1.

NC(=O)N1c2ccccc2CC(=O)c2ccccc21
solubility (mole fraction)
Conditions	in THF	in acetone	in acetonitrile	in ethanol	in isopropanol	in methanol	in n-butanol	in n-propanol
288.15 K	0.00204	0.00105	0.000641	0.000273	0.000151	0.000534	0.000251	0.000245
293.15 K	0.00217	0.0012	0.000751	0.000322	0.000187	0.000619	0.000309	0.000301
298.15 K	0.00241	0.00134	0.000839	0.000383	0.000217	0.000759	0.000355	0.000358
303.15 K	0.00266	0.00154	0.00103	0.000488	0.000299	0.000907	0.000479	0.000475
308.15 K	0.00308	0.00182	0.00122	0.000617	0.000413	0.00111	0.000617	0.000616
